Measured values: ChEMBL document CHEMBL2346579, “Structure-based approaches to ligands for G-protein-coupled adenosine and P2Y receptors, from small molecules to nanoconjugates” (J Med Chem, 2013)
One block for each compound: values may come before it.

Legend:
[1] = biological target: Adenosine receptor A2a (Homo sapiens) (UniProt P29274); assay: Antagonist activity at A2A adenosine receptor (unknown origin)
[2] = biological target: Adenosine receptor A2a (Homo sapiens) (UniProt P29274); assay: Positive allosteric modulation of A2A adenosine receptor (unknown origin)
[3] = biological target: Adenosine receptor A2a (Homo sapiens) (UniProt P29274); assay: Negative allosteric modulation of A2A adenosine receptor (unknown origin)
[4] = biological target: Adenosine receptor A2a (Homo sapiens) (UniProt P29274); assay: Binding affinity to A2A adenosine receptor (unknown origin)

Chain of Adenosine receptor A2a (Homo sapiens) (P29274 whole entry): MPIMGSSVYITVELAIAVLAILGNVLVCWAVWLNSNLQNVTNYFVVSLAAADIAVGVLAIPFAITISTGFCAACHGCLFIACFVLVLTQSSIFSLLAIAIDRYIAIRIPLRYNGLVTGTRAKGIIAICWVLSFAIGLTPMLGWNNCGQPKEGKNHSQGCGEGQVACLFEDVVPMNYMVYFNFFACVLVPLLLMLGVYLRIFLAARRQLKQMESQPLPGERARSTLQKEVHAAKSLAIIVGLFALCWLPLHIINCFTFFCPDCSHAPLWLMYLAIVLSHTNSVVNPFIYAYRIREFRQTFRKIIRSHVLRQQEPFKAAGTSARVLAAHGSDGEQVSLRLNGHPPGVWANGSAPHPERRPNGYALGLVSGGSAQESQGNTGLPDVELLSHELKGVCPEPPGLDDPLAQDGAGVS

- Activity [1]: 200 nM
Compound: Cc1cc(C)nc(NC(=N)NCCc2c[nH]c3ccc(F)cc23)n1

- Activity [4]: 70 nM
Compound: Nc1nc(-c2ccc(F)cc2)ns1

Continued, compound first:

Compound: Nc1nnc(-c2cc(C(F)(F)F)nc(C(F)(F)F)c2)c(-c2ccccc2)n1
- Activity [1]: 30 nM

Compound: O=C(O)CCN1CCCc2ccccc21
- Activity [2]: 2 mM

Compound: Oc1cccc(Nc2ccccc2)c1
- Activity [3]: 2 mM
